ChEMBL document CHEMBL1139263, “New lycorine-type alkaloid from Lycoris traubii and evaluation of antitrypanosomal and antimalarial activities of lycorine derivatives” (Bioorg Med Chem, 2008)
In brackets after ≈: the same amount, converted by molar mass.

Assays:
[1] = Selectivity index ratio IC50 for human MRC5 cells to IC50 for Trypanosoma brucei brucei GUTat3.1; type: functional
Plasmodium falciparum [2] = experiment: Antimalarial activity against drug-resistant Plasmodium falciparum K1 infected human erythrocytes after 72 hrs; type: functional, organism-based; conditions: K1, 72 h
Plasmodium falciparum [3] = experiment: Antimalarial activity against drug-sensitive Plasmodium falciparum FCR3 infected human erythrocytes after 72 hrs; type: functional, organism-based; conditions: FCR3, 72 h
[4] = Selectivity index ratio IC50 for human MRC5 cells to IC50 for Plasmodium falciparum K1; type: functional
[5] = Selectivity index ratio IC50 for human MRC5 cells to IC50 for Plasmodium falciparum FCR3; type: functional
MRC5 = experiment: Cytotoxicity against human MRC5 cells after 7 days by MTT assay; type: cell-based; conditions: MRC5, 168 h
[6] = system: Trypanosoma brucei brucei; experiment: Antitrypanosomal activity against Trypanosoma brucei brucei GUTat3.1 after 72 hrs by alamar blue assay; type: functional, organism-based; conditions: GUTat3.1, 72 h
[7] = system: Trypanosoma brucei rhodesiense; experiment: Antitrypanosomal activity against Trypanosoma brucei rhodesiense STIB900 trypomastigotes; type: functional, organism-based
Plasmodium falciparum [8] = experiment: Antimalarial activity against Plasmodium falciparum D10; type: functional, organism-based
Plasmodium falciparum [9] = experiment: Antimalarial activity against Plasmodium falciparum FAC8; type: functional, organism-based

Question: With `CC(=O)O[C@H]1[C@H]2c3cc4c(cc3CN3CCC(=C[C@@H]1O)[C@H]23)OCO4` as the compound, how does the “Ratio IC50” value [1] read?
Answer: Its value is 0.2.

Question: What about the IC50 (Plasmodium falciparum [2]) of the same compound?
Answer: The IC50 was 0.36 µg/mL (≈ 1.09 µM).

Question: And the IC50 (Plasmodium falciparum [3])?
Answer: The IC50 was 0.3 µg/mL (≈ 0.911 µM).

Question: What about the “Ratio IC50” value [4] of the same compound?
Answer: The value was 3.6.

Question: What about the “Ratio IC50” value [5] of the same compound?
Answer: The value was 4.3.

Question: What about the IC50 (MRC5) of the same compound?
Answer: Its IC50 is 1.29 µg/mL (≈ 3.92 µM).

Question: And the IC50 [6]?
Answer: The IC50 was 5.22 µg/mL (≈ 15.8 µM).

Question: Which “Ratio IC50” value [1] does the source give for `CC(=O)O[C@H]1[C@H]2c3cc4c(cc3CN3CCC(=C[C@@H]1OC(C)=O)[C@H]23)OCO4` here?
Answer: The value was <1.4.

Question: And the IC50 (Plasmodium falciparum [2])?
Answer: Its IC50 is 7.6 µg/mL (≈ 20.5 µM).

Question: And the “Ratio IC50” value [4]?
Answer: The value was 2.4.

Question: What about the IC50 [7] of the same compound?
Answer: Its IC50 is 1 µg/mL (≈ 2.69 µM).

Question: And the IC50 (Plasmodium falciparum [8])?
Answer: Its IC50 is 1 µg/mL (≈ 2.69 µM).

Question: What about the IC50 (Plasmodium falciparum [9]) of the same compound?
Answer: The IC50 was 1 µg/mL (≈ 2.69 µM).

Question: And the IC50 (MRC5)?
Answer: Its IC50 is 18.1 µg/mL (≈ 48.8 µM).

Question: What about the IC50 [6] of the same compound?
Answer: Its IC50 is > 12.5 µg/mL.

Question: For `CCC(=O)O[C@H]1[C@H]2c3cc4c(cc3CN3CCC(=C[C@@H]1O)[C@H]23)OCO4`, which “Ratio IC50” value [1] is on record?
Answer: The value was 3.7.

Question: And the IC50 (Plasmodium falciparum [2])?
Answer: Its IC50 is 0.37 µg/mL (≈ 1.08 µM).

Question: And the IC50 (Plasmodium falciparum [3])?
Answer: Its IC50 is 0.3 µg/mL (≈ 0.874 µM).

Question: And the “Ratio IC50” value [4]?
Answer: Its value is 13.5.

Question: What about the “Ratio IC50” value [5] of the same compound?
Answer: Its value is 16.6.

Question: And the IC50 (MRC5)?
Answer: The IC50 was 4.99 µg/mL (≈ 14.5 µM).

Question: And the IC50 [6]?
Answer: The IC50 was 1.34 µg/mL (≈ 3.9 µM).

Question: Which results are given for `CCCC(=O)O[C@H]1[C@H]2c3cc4c(cc3CN3CCC(=C[C@@H]1OC(=O)CCC)[C@H]23)OCO4`?
Answer: IC50 (Plasmodium falciparum [2]): 0.67 µg/mL (≈ 1.57 µM); IC50 (Plasmodium falciparum [3]): 0.53 µg/mL (≈ 1.24 µM); Ratio IC50 [4]: 21.7; Ratio IC50 [5]: 27.5

Question: With `CCCC(=O)O[C@H]1[C@H]2c3cc4c(cc3CN3CCC(=C[C@@H]1O)[C@H]23)OCO4` as the compound, how does the “Ratio IC50” value [1] read?
Answer: Its value is 2.6.

Question: What about the IC50 (Plasmodium falciparum [2]) of the same compound?
Answer: Its IC50 is 0.41 µg/mL (≈ 1.15 µM).

Question: And the IC50 (Plasmodium falciparum [3])?
Answer: Its IC50 is 0.32 µg/mL (≈ 0.895 µM).

Question: What about the “Ratio IC50” value [4] of the same compound?
Answer: The value was 8.8.

Question: And the “Ratio IC50” value [5]?
Answer: The value was 11.3.

Question: And the IC50 (MRC5)?
Answer: The IC50 was 3.6 µg/mL (≈ 10.1 µM).

Question: What about the IC50 [6] of the same compound?
Answer: Its IC50 is 1.38 µg/mL (≈ 3.86 µM).

Question: Which results are given for `C[C@@H](O)CC(=O)O[C@@H]1[C@H]2c3cc4c(cc3CN3CCC(=C[C@@H]1O)[C@H]23)OCO4`?
Answer: Ratio IC50 [1]: 2.6; IC50 (Plasmodium falciparum [2]): 0.62 µg/mL (≈ 1.66 µM); IC50 (Plasmodium falciparum [3]): 0.49 µg/mL (≈ 1.31 µM); Ratio IC50 [4]: 10.2; Ratio IC50 [5]: 13; IC50 (MRC5): 6.35 µg/mL (≈ 17 µM); IC50 [6]: 2.45 µg/mL (≈ 6.56 µM)

Question: Which “Ratio IC50” value [1] does the source give for `CC(=O)O[C@H]1C=C2CCN3Cc4cc5c(cc4[C@H]([C@@H]1O)[C@@H]23)OCO5` here?
Answer: The value was 40.7.

Question: What about the IC50 (Plasmodium falciparum [2]) of the same compound?
Answer: Its IC50 is 8.21 µg/mL (≈ 24.9 µM).

Question: What about the “Ratio IC50” value [4] of the same compound?
Answer: The value was 0.7.

Question: What about the IC50 (MRC5) of the same compound?
Answer: Its IC50 is 6.11 µg/mL (≈ 18.6 µM).

Question: And the IC50 [6]?
Answer: Its IC50 is 0.15 µg/mL (≈ 0.455 µM).

Question: Which IC50 (Plasmodium falciparum [2]) does the source give for `CCC(=O)O[C@H]1[C@H]2c3cc4c(cc3CN3CCC(=C[C@@H]1OC(=O)CC)[C@H]23)OCO4` here?
Answer: Its IC50 is 4.2 µg/mL (≈ 10.5 µM).

Question: What about the “Ratio IC50” value [4] of the same compound?
Answer: Its value is >23.8.

Question: And the IC50 (MRC5)?
Answer: The IC50 was > 23.8 µg/mL.

Question: For `C[C@H](O)CC(=O)O[C@H]1[C@H]2c3cc4c(cc3CN3CCC(=C[C@@H]1O)[C@H]23)OCO4`, which “Ratio IC50” value [1] is on record?
Answer: The value was 4.3.

Question: And the IC50 (Plasmodium falciparum [2])?
Answer: Its IC50 is 0.6 µg/mL (≈ 1.61 µM).

Question: And the IC50 (Plasmodium falciparum [3])?
Answer: The IC50 was 0.45 µg/mL (≈ 1.21 µM).

Question: What about the “Ratio IC50” value [4] of the same compound?
Answer: Its value is 13.5.

Question: And the “Ratio IC50” value [5]?
Answer: Its value is 18.

Question: What about the IC50 (MRC5) of the same compound?
Answer: The IC50 was 8.11 µg/mL (≈ 21.7 µM).

Question: What about the IC50 [6] of the same compound?
Answer: The IC50 was 1.9 µg/mL (≈ 5.09 µM).

Question: With `C[C@@H]1CC[C@H]2[C@@H](C)C(=O)O[C@@H]3O[C@@]4(C)CC[C@@H]1[C@]32OO4` [ARTEMISININ] as the compound, how does the IC50 (Plasmodium falciparum [2]) read?
Answer: Its IC50 is 0.0057 µg/mL (≈ 0.0202 µM).

Question: And the IC50 (Plasmodium falciparum [3])?
Answer: The IC50 was 0.006 µg/mL (≈ 0.0213 µM).

Question: What about the “Ratio IC50” value [4] of the same compound?
Answer: Its value is 7924.5.

Question: And the “Ratio IC50” value [5]?
Answer: Its value is 7528.3.

Question: With `NCCCC(N)(C(=O)O)C(F)F` (stereo not drawn) [EFLORNITHINE] as the compound, how does the “Ratio IC50” value [1] read?
Answer: Its value is >44.

Question: And the IC50 (MRC5)?
Answer: Its IC50 is > 100 µg/mL.

Question: And the IC50 [6]?
Answer: Its IC50 is 2.27 µg/mL (≈ 12.5 µM).

Question: For `N=C(N)c1ccc(OCCCCCOc2ccc(C(=N)N)cc2)cc1` [PENTAMIDINE], which “Ratio IC50” value [1] is on record?
Answer: The value was 3614.

Question: What about the IC50 (MRC5) of the same compound?
Answer: Its IC50 is 5.71 µg/mL (≈ 16.8 µM).

Question: What about the IC50 [6] of the same compound?
Answer: Its IC50 is 0.00158 µg/mL (≈ 0.00464 µM).

Question: For `Cc1ccc(C(=O)Nc2ccc(S(=O)(=O)O)c3cc(S(=O)(=O)O)cc(S(=O)(=O)O)c23)cc1NC(=O)c1cccc(NC(=O)Nc2cccc(C(=O)Nc3cc(C(=O)Nc4ccc(S(=O)(=O)O)c5cc(S(=O)(=O)O)cc(S(=O)(=O)O)c45)ccc3C)c2)c1` [SURAMIN], which “Ratio IC50” value [1] is on record?
Answer: Its value is >63.

Question: What about the IC50 (MRC5) of the same compound?
Answer: The IC50 was > 100 µg/mL.

Question: And the IC50 [6]?
Answer: The IC50 was 1.58 µg/mL (≈ 1.22 µM).
